Data as given in patent publication EP0116431B1, “Aromatase inhibiting pyrimidine derivatives” (ELI LILLY AND COMPANY, priority 1983, dated 1984).
Where two headings read alike, the source gives them in different places.

Legend:
[1] = test system: DMBA-induced Mammary Tumor; experiment: DMBA-induced mammary tumor inhibition; format: in vivo, Sprague-Dawley rats; details: for Mean Tumor Area (mm^2) Start: start of test
Description: Mammary tumors were produced in female Sprague-Dawley rats which were 50-60 days old by the gavage administration of 20 mg of 7,12-dimethylbenz[a]anthracene (DMBA). About six weeks after DMBA administration, the mammary glands were palpated at weekly intervals for the appearance of tumors. Whenever one or more tumors appeared and were measurable in an animal, that animal was selected for experimentation. […] Each control and test group contained 8 animals. The test compound was administered either mixed into the food at a concentration of 300 ppm (corresponding to an appropriate daily dose of 30 mg/kg) or the compounds were dissolved or suspended in corn oil and administered once daily by gavage. Every experiment included a group of control rats having tumors and were either given food without the compound admixed or corn oil vehicle by gavage, depending on how the test compound was administered. […] The area of each tumor was calculated by multiplying the shortest and longest diameters of the tumor. The treatment and measurement of animals continued for 4-8 weeks at which time the final areas of the tumors were determined. For each compound (and control) at each dose level, the change in the mean tumor area was determined. The mean change was analyzed for its significance using Dunnett's t-test.

synthesis of estrogens = details: seven days, testosterone propionate-treated immature female rats
[2] = 300 ppm in the diet, 5 weeks test
[3] = 300 ppm in feed (approximately 30 mg/kg/day)

## Clc1ccc(C(c2ccc(Cl)cc2)c2cncnc2)cc1 [compound 27, 5-bis(4-chlorophenyl)methylpyrimidine]
[1]; 300 ppm in the diet, 5 weeks
  Mean Tumor Area (mm^2) Finish: 154 mm^2
[1]; [2]
  Mean Tumor Area (mm^2) Start: 78.6 mm^2
Synthesis of estrogens; 30 ppm in feed (approximately 3 mg/kg/day)
  Mean Uterine Weight (mg): 92.25^+ mg
Synthesis of estrogens; [3]
  Mean Uterine Weight (mg): 80.20^+ mg

## OC(c1ccc(Cl)cc1)(c1ccc(Cl)cc1)c1cncnc1 [compound 29, α,α-bis(4-chlorophenyl)-5-pyrimidinemethanol]
[1]; 1 mg/kg daily by gavage, 5 weeks
  Mean Tumor Area (mm^2) Finish: 210^+ mm^2
[1]; 1 mg/kg daily by gavage, 5 weeks test
  Mean Tumor Area (mm^2) Start: 66 mm^2
[1]; 5 mg/kg daily by gavage, 4 weeks
  Mean Tumor Area (mm^2) Finish: 123.5 mm^2
[1]; 5 mg/kg daily by gavage, 4 weeks test
  Mean Tumor Area (mm^2) Start: 56.3 mm^2
[1]; 7.5 mg/kg daily by gavage, 5 weeks
  Mean Tumor Area (mm^2) Finish: 159^+ mm^2
[1]; 7.5 mg/kg daily by gavage, 5 weeks test
  Mean Tumor Area (mm^2) Start: 63 mm^2
[1]; 15 mg/kg daily by gavage, 5 weeks
  Mean Tumor Area (mm^2) Finish: 9^+ mm^2
[1]; 15 mg/kg daily by gavage, 5 weeks test
  Mean Tumor Area (mm^2) Start: 50 mm^2
[1]; 30 mg/kg daily by gavage, 4 weeks
  Mean Tumor Area (mm^2) Finish: 34.3 mm^2
[1]; 30 mg/kg daily by gavage, 4 weeks test
  Mean Tumor Area (mm^2) Start: 71.5 mm^2
[1]; 30 mg/kg daily by gavage, 5 weeks
  Mean Tumor Area (mm^2) Finish: 146^+ mm^2
[1]; 30 mg/kg daily by gavage, 5 weeks test
  Mean Tumor Area (mm^2) Start: 69 mm^2
[1]; 300 ppm in the diet, 5 weeks
  Mean Tumor Area (mm^2) Finish: 10.0^+ mm^2
[1]; [2]
  Mean Tumor Area (mm^2) Start: 60.7 mm^2
[1]; 300 ppm in the diet, 8 weeks
  Mean Tumor Area (mm^2) Finish: 355^+ mm^2
[1]; 300 ppm in the diet, 8 weeks test
  Mean Tumor Area (mm^2) Start: 160.4 mm^2
Synthesis of estrogens; [3]
  Mean Uterine Weight (mg): 75.00^+ mg
